The text below walks through data of patent publication US11420935B2, “Bicyclic compounds” (Vivace Therapeutics, Inc., priority 2019, dated 2022).

Read-outs that look alike come from different tables or passages of the source. Bounds are passed on as bounds.

This experiment concerns 8×TBD luciferase reporter (YAP) in HEK293T cells. In words: YAP Reporter Assay (8×TBD firefly luciferase reporter). Type of experiment: cell-based. Particulars: Homo sapiens, HEK-293T. On the procedure:
HEK293T cells stably transfected with 8×TBD luciferase reporter and pRLTK in 384-well plates were treated with the test compounds, starting from 3 μM (final concentration in assay plate), 1:3 dilution, and 10 points in quadruplicates. Post 24-hr incubation with compounds at 37° C. and 5% CO2, cells were lysed and 8×TBD-driven firefly luciferase and control TK-driven renilla luciferase activities were measured using Promega Dual-Luciferase Reporter Assay System.
Reagents: The reagents used for this study are: DMEM: Invitrogen #11960077, Dual-Glo Luciferase Assay System: Promega-E2980, Puromycin Dihydrochloride: Invitrogen-A1113803, 384-well plate: PerkinElmer-6007480, L-GLUTAMINE: Invitrogen-25030164, Hygromycin B: Invitrogen-10687010, and Penicillin-Streptomycin: Merk-TMS-AB2-C
Media: The media used for this assay were: Culture Medium: DMEM+1 ug/mL puromycin+200 ug/mL hygromycin (with 10% FBS+1 mM L-glutamine); and Assay Medium: DMEM (with 10% FBS+1 mM L-glutamine+1×P/S).
Cell Plating: The appropriate media was warmed at 37° C. by water bath: Culture Medium, Assay Medium, 1*D-PBS, 0.05% trypsin-EDTA. The cells were trypsinized after removing all media, then washed with 1*sterile D-PBS and then with 2 ml 0.05% trypsin-EDTA. The cells were then incubated at RT for one minute. Then 10 ml/75 cm2 flask Assay Medium was added to each flask. Using a 10 ml pipette, the cells were then gently resuspended in the media, until the clumps completely disappeared. The cells were then transferred into 50 ml centrifuge tubes and were centrifuged at 800 rpm for 5 mins. The medium was removed and the cells were resuspended with Assay Medium. An aliquot of cells was used to count the cell density (cells/ml). The cell suspension was then diluted with Assay Medium to a concentration of 6×10^4 cells/ml. 50 ul cells suspension was then plated to 384-well plate (PerkinElmer-6007480), 3×10^3 cells/well and the cells were incubated in an incubator at 37° C., 5% CO2.
Compound Treatment: In the afternoon (incubation of the plate with 3-4 hrs), the test compounds were added by Echo, starting from 3 uM (final concentration in the assay plate), 1:3 dilution, 10 points, quadruplicates. The plate was placed at 37° C., 5% CO2 incubator for 24 hrs.
Detection: The Dual-Glo Luciferase Reagent was prepared by transferring the contents of one bottle of Dual-Glo Luciferase Buffer to one bottle of Dual-Glo Luciferase Substrate to create the Dual-Glo Luciferase Reagent. Mixing was performed by inversion until the substrate was thoroughly dissolved. After mixing, the reagent was aliquoted into 15 ml tubes. In the afternoon (24 hrs post compound treatment), the DMEM+medium in the 384 well plates were aspirated by Microplate Washer.
Measuring firefly luciferase activity: 20 ul Dual-Glo Luciferase Reagent was added to the 384-well plates. The plates were protected from light to prevent interference with the assay. The plates were shaken for 1 min followed centrifuging plates at 1000 rpm for 30 seconds. After waiting at least 10 minutes, the firefly luminescence was measured by Envision.
Measuring renilla luciferase activity: 20 ul Stop-Glo Reagent was added to the 384-well plates. The plates were shaken for 1 min and then centrifuged at 1000 rpm for 30 seconds. After waiting at least 10 minutes, the renilla luminescence was measured by Envision.
Compound IC50 and maximum inhibition on the firefly luciferase and renilla luciferase activities were reported separately.

Setting [1] is: HEK293T cells stably transfected with 8×TBD luciferase reporter and pRLTK, 24-hr incubation, firefly luciferase activity, read-out: Firefly Luciferase IC50.

Turning to `O=C(N[C@@H](CO)c1ccccn1)c1ccc2c(Oc3ccc(C(F)(F)F)cc3)cccc2c1` [Compound 120, (R)—N-(2-hydroxy-1-(pyridin-2-yl)ethyl)-5-(4-(trifluoromethyl)phenoxy)-2-naphthamide], under setting [1], the IC50 is 0.1 to 1 µM.
The same measure, in the same setting: the figure for `C[C@@H](NC(=O)c1ccc2c(Oc3ccc(C(F)(F)F)cc3)cccc2c1)C1(O)CNC1` [Compound 139, (R)—N-(1-(3-hydroxyazetidin-3-yl)ethyl)-5-(4-(trifluoromethyl)phenoxy)-2-naphthamide] is less than 0.1 µM; for `C[C@@H](NC(=O)c1ccc2c(Oc3ccc(C(F)(F)F)cc3)cccc2c1)c1ccccn1` [Compound 27, N-[(1R)-1-(2-pyridyl)ethyl]-5-[4-(trifluoromethyl)phenoxy]naphthalene-2-carboxamide] it is 0.1 to 1 µM.
Take `C[C@@H](NC(=O)c1ccc2c(Oc3ccc(C(F)(F)F)cc3)cccc2c1)c1ncc[nH]1` [Compound 64, (R)—N-(1-(1H-imidazol-2-yl)ethyl)-5-(4-(trifluoromethyl)phenoxy)-2-naphthamide]: under setting [1], the IC50 is less than 0.1 µM.
As to `COC[C@@H](C)NC(=O)c1cnc2c(Oc3ccc(C(F)(F)F)cc3)cccc2c1` [Compound 16, N-[(1R)-2-methoxy-1-methyl-ethyl]-8-[4-(trifluoromethyl)phenoxy]quinoline-3-carboxamide], under setting [1], the IC50 was in the range of 0.1 to 1 µM.
Same read-out and setting: for `C[C@@H](NC(=O)c1ccc2c(Oc3ccc(C(F)(F)F)cc3)cccc2c1)c1cc(N)ccn1` [Compound 72, (R)—N-(1-(4-aminopyridin-2-yl)ethyl)-5-(4-(trifluoromethyl)phenoxy)-2-naphthamide] the value was less than 0.1 µM; for `C#CCNC(=O)c1ccc2c(Oc3ccc(C(F)(F)F)cc3)cccc2c1` [Compound 20, N-(prop-2-yn-1-yl)-5-(4-(trifluoromethyl)phenoxy)-2-naphthamide], less than 0.1 µM; for `C[C@H](CCN)NC(=O)c1ccc2c(Oc3ccc(C(F)(F)F)cc3)cccc2c1` [Compound 112, (R)—N-(4-aminobutan-2-yl)-5-(4-(trifluoromethyl)phenoxy)-2-naphthamide], less than 0.1 µM.
`CCN1CC([C@@H](C)NC(=O)c2ccc3c(Oc4ccc(C(F)(F)F)cc4)cccc3c2)C1` [Compound 131, (R)—N-(1-(1-ethylazetidin-3-yl)ethyl)-5-(4-(trifluoromethyl)phenoxy)-2-naphthamide]: the half-maximal inhibitory concentration (IC50) under setting [1] fell in the range of 0.1 to 1 µM.
For the molecule `C[C@H](CO)NC(=O)c1ccc2c(Oc3ccc(C(F)(F)F)cc3)cccc2c1` [Compound 24, (R)—N-(1-hydroxypropan-2-yl)-5-(4-(trifluoromethyl)phenoxy)-2-naphthamide], the 50% inhibitory concentration (IC50) under setting [1] was less than 0.1 µM.
On to `C[C@@H](NC(=O)c1ccc2c(Oc3ccc(C(F)(F)F)cc3)cccc2c1)C1CCN(C)CC1` [Compound 157, (R)-N-(1-(1-methylpiperidin-4-yl)ethyl)-5-(4-(trifluoromethyl)phenoxy)-2-naphthamide], for which the 50% inhibitory concentration (IC50) under setting [1] was less than 0.1 µM.
Regarding `C[C@H](NC(=O)c1ccc2c(Oc3ccc(C(F)(F)F)cc3)cccc2c1)c1cnccn1` [Compound 47, (S)—N-(1-(pyrazin-2-yl)ethyl)-5-(4-(trifluoromethyl)phenoxy)-2-naphthamide], the IC50 under setting [1] is 0.1 to 1 µM.
With `C[C@@H](CN)NC(=O)c1ccc2c(Oc3ccc(C(F)(F)F)cc3)cccc2c1` [Compound 108, (S)—N-(1-aminopropan-2-yl)-5-(4-(trifluoromethyl)phenoxy)-2-naphthamide], the IC50 under setting [1] is less than 0.1 µM.
On to `O=C(N[C@@H](CO)C1CNC1)c1ccc2c(Oc3ccc(C(F)(F)F)cc3)cccc2c1` [Compound 140, (R)—N-(1-(azetidin-3-yl)-2-hydroxyethyl)-5-(4-(trifluoromethyl)phenoxy)-2-naphthamide], for which the concentration for half-maximal inhibition (IC50) under setting [1] fell in the range of 1 to 3 µM.
As for `C[C@@H](NC(=O)c1ccc2c(Oc3ccc(C(F)(F)F)cc3)cccc2c1)C1CCN(CCO)CC1` [Compound 153, (R)-N-(1-(1-(2-hydroxyethyl)piperidin-4-yl)ethyl)-5-(4-(trifluoromethyl)phenoxy)-2-naphthamide], under setting [1], the IC50 fell in the range of 0.1 to 1 µM.
`CNS(=O)(=O)c1ccc2c(Oc3ccc(C(F)(F)F)cc3)cccc2c1` [Compound 7, N-methyl-5-(4-(trifluoromethyl)phenoxy)naphthalene-2-sulfonamide]: the IC50 under setting [1] is less than 0.1 µM.
On the same count and under the same terms, the figure for `C#C[C@@H](C)NC(=O)c1ccc2c(Oc3ccc(C(F)(F)F)cc3)cccc2c1` [Compound 61, (R)—N-(but-3-yn-2-yl)-5-(4-(trifluoromethyl)phenoxy)-2-naphthamide] is less than 0.1 µM.
With `CC(C)NC(=O)c1ccc2c(Oc3ccc(C(F)(F)F)cc3)cccc2c1` [Compound 4, N-isopropyl-5-(4-(trifluoromethyl)phenoxy)-2-naphthamide], under setting [1], the IC50 was less than 0.1 µM.
The same measure, in the same setting: for `C[C@H](CO)NC(=O)c1ccc2c(Oc3ccc(C(F)(F)F)cc3)nccc2c1` [Compound 12, N-[(1R)-2-hydroxy-1-methyl-ethyl]-1-[4-(trifluoromethyl)phenoxy]isoquinoline-6-carboxamide] the value was less than 0.1 µM; for `COC[C@H](C)NC(=O)c1cnc2c(Oc3ccc(C(F)(F)F)cc3)cccc2c1` [Compound 18, N-[(1S)-2-methoxy-1-methyl-ethyl]-8-[4-(trifluoromethyl)phenoxy]quinoline-3-carboxamide], less than 0.1 µM; for `C[C@@H](NC(=O)c1ccc2c(Oc3ccc(C(F)(F)F)cc3)cccc2c1)C1CCNCC1` [Compound 150, (R)-N-(1-(piperidin-4-yl)ethyl)-5-(4-(trifluoromethyl)phenoxy)-2-naphthamide], less than 0.1 µM.
In the case of `C[C@@H](NC(=O)c1cnc2c(Oc3ccc(C(F)(F)F)cc3)cccc2c1)c1cccc2ccsc12` [Compound 105, (R)—N-(1-(benzo[b]thiophen-7-yl)ethyl)-8-(4-(trifluoromethyl)phenoxy)quinoline-3-carboxamide], the IC50 under setting [1] lay within 0.1 to 1 µM.
For `CC(C)NC(=O)c1ccc2c(Oc3ccc(C(F)(F)F)cc3Cl)cccc2c1` [Compound 85, 5-(2-chloro-4-(trifluoromethyl)phenoxy)-N-isopropyl-2-naphthamide], under setting [1], the IC50 is less than 0.1 µM.
On to `C[C@H](NC(=O)c1ccc2c(Oc3ccc(C(F)(F)F)cc3)cccc2c1)c1nn[nH]n1` [Compound 52, (S)—N-(1-(2H-tetrazol-5-yl)ethyl)-5-(4-(trifluoromethyl)phenoxy)-2-naphthamide], for which the IC50 under setting [1] lay in the range of 1 to 3 µM.
As for `COC[C@@H](C)NC(=O)c1cnc2c(Oc3ccc(C(F)(F)F)cc3)cc(OC)cc2c1` [Compound 44, (R)-6-methoxy-N-(1-methoxypropan-2-yl)-8-(4-(trifluoromethyl)phenoxy)quinoline-3-carboxamide], under setting [1], the IC50 was less than 0.1 µM.
`CC(C)NC(=O)c1ccc2c(Oc3ccc(Cl)cc3)cccc2c1` [Compound 1, 5-(4-chlorophenoxy)-N-isopropyl-2-naphthamide]: under “24 h, read-out: Firefly Luciferase IC50 (μM)”, the IC50 is less than 0.1 µM.
Turning to `C[C@@H](NC(=O)c1ccc2c(Oc3ccc(C(F)(F)F)cc3)cccc2c1)C1CC1` [Compound 38, (R)—N-(1-cyclopropylethyl)-5-(4-(trifluoromethyl)phenoxy)-2-naphthamide], the IC50 under setting [1] was less than 0.1 µM.
For the molecule `C[C@@H](NC(=O)c1ccc2c(Oc3ccc(C(F)(F)F)cc3)cccc2c1)c1nccn1C` [Compound 68, (R)—N-(1-(1-methyl-1H-imidazol-2-yl)ethyl)-5-(4-(trifluoromethyl)phenoxy)-2-naphthamide], the IC50 under setting [1] fell in the range of 0.1 to 1 µM.
